PubChem BioAssay (NCI)
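In this assay, cells in 96-well plates receive the compound at five concentrations for 48 hours. Endpoints are linearly interpolated between the surrounding concentrations. The concentration for 50% growth inhibition is given as GI50. At the TGI there is no net growth.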

Key:
Experiment in all cases: DTP human tumour cell line panel, 48 h
[1] = system: SW-620 colon
[2] = system: NCI-H522 lung
[3] = system: CCRF-CEM leukemia
[4] = system: UACC-62 melanoma
[5] = system: OVCAR-8 ovarian
[6] = system: OVCAR-4 ovarian
[7] = system: TK-10 renal
[8] = system: HCC-2998 colon
[9] = system: OVCAR-3 ovarian
[10] = system: UACC-257 melanoma
[11] = system: HL-60(TB) leukemia
[12] = system: MOLT-4 leukemia
[13] = system: SK-MEL-28 melanoma
[14] = system: A549 NSCLC
[15] = system: SF-268 CNS
[16] = system: IGROV1 ovarian
[17] = system: HCT-116 colon
[18] = system: SNB-19 CNS
[19] = system: HCT-15 colon
[20] = system: MDA-MB-435
[21] = system: DU-145 prostate
[22] = system: MALME-3M melanoma
[23] = system: NCI-H460 lung
[24] = system: HOP-62 NSCLC
[25] = system: OVCAR-5 ovarian
[26] = system: KM12 colon
[27] = system: MCF7 breast
[28] = system: NCI-H226 lung
[29] = system: PC-3 prostate
[30] = system: NCI/ADR-RES ovarian
[31] = system: RXF 393 renal
[32] = system: M14 melanoma
[33] = system: SK-OV-3 ovarian
[34] = system: EKVX NSCLC
[35] = system: CAKI-1 renal
[36] = system: NCI-H23 lung
[37] = system: T-47D breast
[38] = system: LOX IMVI melanoma
[39] = system: 786-0 renal
[40] = system: SK-MEL-2 melanoma
[41] = system: K-562 leukemia
[42] = system: SR leukemia
[43] = system: SNB-75 CNS
[44] = system: HS 578T breast
[45] = system: HT29 colon
[46] = system: SF-539 CNS
[47] = system: U251 CNS
[48] = system: RPMI-8226 leukemia
[49] = system: ACHN renal
[50] = system: HOP-92 NSCLC
[51] = system: SF-295 CNS
[52] = system: COLO 205 colon
[53] = system: SK-MEL-5 melanoma
[54] = system: MDA-MB-231 breast
[55] = system: A498 renal
[56] = system: UO-31 renal
[57] = system: SN12C renal
[58] = system: BT-549 breast

C=CCNCCN1C(=O)c2ccc3c4c(ccc(c24)C1=O)C(=O)N(CCNCC=C)C3=O
GI50 [1]: 402 nM | TGI [1]: 1630 nM | GI50 [2]: 616 nM | TGI [2]: 1540 nM | GI50 [3]: 708 nM | TGI [3]: 3440 nM | GI50 [4]: 895 nM | TGI [4]: 1680 nM | GI50 [5]: 421 nM | TGI [5]: 4000 nM | GI50 [6]: 315 nM | TGI [6]: 1000 nM | GI50 [7]: 1110 nM | TGI [7]: 3430 nM | GI50 [8]: 766 nM | TGI [8]: 1550 nM | GI50 [9]: 990 nM | TGI [9]: 3270 nM | GI50 [10]: 786 nM | TGI [10]: 1490 nM | GI50 [11]: 860 nM | TGI [11]: 2210 nM | GI50 [12]: 427 nM | TGI [12]: 1630 nM | GI50 [13]: 1180 nM | TGI [13]: 2680 nM | GI50 [14]: 418 nM | TGI [14]: 1670 nM | GI50 [15]: 753 nM | TGI [15]: 3540 nM | GI50 [16]: 504 nM | TGI [16]: 1670 nM | GI50 [17]: 500 nM | TGI [17]: 50000 nM | GI50 [18]: 650 nM | TGI [18]: 1350 nM | GI50 [19]: 457 nM | TGI [19]: 1660 nM | GI50 [20]: 745 nM | TGI [20]: 1700 nM | GI50 [21]: 663 nM | TGI [21]: 1360 nM | GI50 [22]: 343 nM | TGI [22]: 996 nM | GI50 [23]: 258 nM | TGI [23]: 1730 nM | GI50 [24]: 712 nM | TGI [24]: 2700 nM | GI50 [25]: 1040 nM | TGI [25]: 3090 nM | GI50 [26]: 590 nM | TGI [26]: 1820 nM | GI50 [27]: 225 nM | TGI [27]: 983 nM | GI50 [28]: 493 nM | TGI [28]: 1460 nM | GI50 [29]: 1340 nM | TGI [29]: 16600 nM | GI50 [30]: 995 nM | TGI [30]: 5290 nM | GI50 [31]: 696 nM | TGI [31]: 1480 nM | GI50 [32]: 918 nM | TGI [32]: 1800 nM | GI50 [33]: 1050 nM | TGI [33]: 2800 nM | GI50 [34]: 557 nM | TGI [34]: 1510 nM | GI50 [35]: 630 nM | TGI [35]: 1840 nM | GI50 [36]: 938 nM | TGI [36]: 2100 nM | GI50 [37]: 1200 nM | TGI [37]: 2650 nM | GI50 [38]: 728 nM | TGI [38]: 1770 nM | GI50 [39]: 1110 nM | TGI [39]: 2800 nM | GI50 [40]: 891 nM | TGI [40]: 1740 nM | GI50 [41]: 534 nM | TGI [41]: 3240 nM | GI50 [42]: 811 nM | TGI [42]: 2920 nM | GI50 [43]: 874 nM | TGI [43]: 1670 nM | GI50 [44]: 1760 nM | TGI [44]: 8710 nM | GI50 [45]: 193 nM | TGI [45]: 769 nM | GI50 [46]: 847 nM | TGI [46]: 1960 nM | GI50 [47]: 526 nM | TGI [47]: 1260 nM | GI50 [48]: 953 nM | TGI [48]: 4230 nM | GI50 [49]: 407 nM | TGI [49]: 2520 nM | GI50 [50]: 1810 nM | TGI [50]: 5560 nM | GI50 [51]: 397 nM | TGI [51]: 1280 nM | GI50 [52]: 160 nM | TGI [52]: 407 nM | GI50 [53]: 584 nM | TGI [53]: 1200 nM | GI50 [54]: 1260 nM | TGI [54]: 4710 nM | GI50 [55]: 1140 nM | TGI [55]: 3570 nM | GI50 [56]: 716 nM | TGI [56]: 1690 nM | GI50 [57]: 489 nM | TGI [57]: 1260 nM | GI50 [58]: 2910 nM | TGI [58]: 10200 nM
